# Laboratory results: US7247634B2, “Rifamycin derivatives effective against drug-resistant microbes” (Cumbre Pharmaceuticals Inc., priority 2004, dated 2007)
# Tests used:
# Format in all cases: cell-based
# [1] = test system: Enterococcus faecalis ATCC29212; assay: MIC, microbroth dilution (NCCLS); details: rifS strain, BHI Broth, 37° C., read-out: Antimicrobial activity (MIC)
# [2] = test system: Streptococcus pneumoniae ATCC6303; assay: MIC, microbroth dilution (NCCLS); details: rifS strain, THY Broth with 1 mg/mL catalase, 5% CO2, 37° C., read-out: Antimicrobial activity (MIC)
# [3] = test system: Staphylococcus aureus ATCC29213 rpoB^H418Y; assay: microbe, parasite or virus in culture; details: ATCC29213, read-out: Antimicrobial activity (MIC)
# Procedure: (§1) Representative compounds were assayed for antimicrobial activity as follows: Minimum Inhibitory Concentrations (“MICs”) were determined by the microbroth dilution method as per NCCLS guidelines (National Committee for Clinical Laboratory Standards. 2000. Methods for dilution antimicrobial susceptibility tests for bacteria that grow aerobically, 5th ed. M7-A5. National Committee for Clinical Laboratory Standards, Wayne, Pa.), except that all growth incubations were conducted at 37° C. Bacterial cultures were tested in the following bacteriological media: S. aureus, S. epidermidis, and E. coli in Cation-Adjusted Mueller-Hinton Broth, S. pneumoniae in THY Broth supplemented with 1 mg/mL catalase under 5% CO2 atmosphere, S. pyogenes in THY Broth, E. faecalis in BHI Broth, H. influenzae in BHI Broth supplemented with 0.75 μL of 1 mg/mL NAD and 150 μL of 1 mg/ml hematin per 5 mL, and M. smegmatis in Middlebrook Broth plus ADC Enrichment.
# (§2) S. aureus ATCC 29213 RpoB^H418Y is a rifampin-resistant strain with a mutation in RNA polymerase, the biological target of rifamycin antibiotics. […] S. aureus EN1252a gyrA^S84L grlA^S80F is a quinolone-resistant strain due to double mutations to DNA gyrase and topoisomerase IV, the two biological targets for quinolone antibiotics.
# [4] = test system: Staphylococcus aureus ATCC29213 rpoB^D417Y; assay: microbe, parasite or virus in culture; details: ATCC29213, read-out: Antimicrobial activity (MIC)
# Procedure: as §1, §2
# [5] = test system: Staphylococcus aureus EN1252a gyrA^S84L grlA^S80F; assay: microbe, parasite or virus in culture; details: read-out: Antimicrobial activity (MIC)
# Procedure: as §1, §2
# [6] = test system: Escherichia coli ATCC25922; assay: MIC, microbroth dilution (NCCLS); details: rifS strain, Cation-Adjusted Mueller-Hinton Broth, 37° C., read-out: Antimicrobial activity (MIC)
# [7] = test system: Staphylococcus epidermidis ATCC12228; assay: MIC, microbroth dilution (NCCLS); details: rifS strain, Cation-Adjusted Mueller-Hinton Broth, 37° C., read-out: Antimicrobial activity (MIC)
# [8] = test system: Streptococcus pyogenes ATCC19615; assay: MIC, microbroth dilution (NCCLS); details: rifS strain, THY Broth, 37° C., read-out: Antimicrobial activity (MIC)
# [9] = test system: Mycobacterium smegmatis ATCC700084; assay: MIC, microbroth dilution (NCCLS); details: Mycolicibacterium smegmatis, rifS strain, Middlebrook Broth plus ADC Enrichment, 37° C., read-out: Antimicrobial activity (MIC)
# [10] = test system: Staphylococcus aureus ATCC29213; assay: MIC, microbroth dilution (NCCLS); details: rifS strain, Cation-Adjusted Mueller-Hinton Broth, 37° C., read-out: Antimicrobial activity (MIC)
# [11] = test system: Haemophilus influenzae ATCC10211; assay: MIC, microbroth dilution (NCCLS); details: rifS strain, BHI Broth with NAD and hematin, 37° C., read-out: Antimicrobial activity (MIC)
SMILES,MIC [1],MIC [2],MIC [3],MIC [4],MIC [5],MIC [6],MIC [7],MIC [8],MIC [9],MIC [10],MIC [11]
"CO[C@H]1/C=C/O[C@@]2(C)Oc3c(C)c(O)c4c(c3C2=O)C(=O)C(N2CCN(c3nc5c(cc3F)c(=O)c(C(=O)O)cn5-c3ccc(F)cc3F)CC2)=C(NC(=O)/C(C)=C\C=C\[C@H](C)[C@H](O)[C@@H](C)[C@@H](O)[C@@H](C)[C@H](OC(C)=O)[C@@H]1C)C4=O [Example 5, 3-[4-(3-Carboxy-1-(2,4-difluorophenyl)-6-fluoro-4-oxo-1,4-dihydronaphthyridin-7-yl)piperazin-1-yl]rifamycin S]",2 to 32 µg/mL,0.008 to 0.125 µg/mL,0.06 to 16 µg/mL,0.06 to 32 µg/mL,0.004 to 0.5 µg/mL,0.125 to 8 µg/mL,0.008 to 0.063 µg/mL,0.008 to 0.063 µg/mL,0.5 to 64 µg/mL,0.004 to 0.5 µg/mL,0.125 to 2 µg/mL
"CO[C@H]1/C=C/O[C@@]2(C)Oc3c(C)c(O)c4c(c3C2=O)C(=O)C(N2CCC(CCCC3CCN(c5nc6c(cc5F)c(=O)c(C(=O)O)cn6-c5ccc(F)cc5F)CC3)CC2)=C(NC(=O)/C(C)=C\C=C\[C@H](C)[C@H](O)[C@@H](C)[C@@H](O)[C@@H](C)[C@H](OC(C)=O)[C@@H]1C)C4=O [Example 6, 3-[4-[3-[1-[3-Carboxy-1-(2,4-difluorophenyl)-6-fluoro-4-oxo-1,4-dihydronaphthyridin-7-yl]piperidin-4-yl]propyl]piperidin-1-yl]rifamycin S]",2 to 32 µg/mL,0.008 to 0.125 µg/mL,0.06 to 16 µg/mL,0.06 to 32 µg/mL,0.004 to 0.5 µg/mL,0.125 to 8 µg/mL,0.008 to 0.063 µg/mL,0.008 to 0.063 µg/mL,0.5 to 64 µg/mL,0.004 to 0.5 µg/mL,0.125 to 2 µg/mL
"CO[C@H]1/C=C/O[C@@]2(C)Oc3c(C)c(O)c4c(c3C2=O)C(=O)C(N[C@@H]2CCN(c3cc5c(cc3F)c(=O)c(C(=O)O)cn5C3CC3)C2)=C(NC(=O)/C(C)=C\C=C\[C@H](C)[C@H](O)[C@@H](C)[C@@H](O)[C@@H](C)[C@H](OC(C)=O)[C@@H]1C)C4=O [Example 8, (R)-3-[1-(3-Carboxy-1-cyclopropyl-6-fluoro-4-oxo-1,4-dihydroquinolin-7-yl)-pyrrolidin-3-ylamino]rifamycin S]",2 to 32 µg/mL,0.008 to 0.125 µg/mL,0.06 to 16 µg/mL,0.06 to 32 µg/mL,0.004 to 0.5 µg/mL,0.125 to 8 µg/mL,0.008 to 0.063 µg/mL,0.008 to 0.063 µg/mL,0.5 to 64 µg/mL,0.004 to 0.5 µg/mL,0.125 to 2 µg/mL
"CO[C@H]1/C=C/O[C@@]2(C)Oc3c(C)c(O)c4c(c3C2=O)C(=O)C(N[C@H]2CCN(c3cc5c(cc3F)c(=O)c(C(=O)O)cn5C3CC3)C2)=C(NC(=O)/C(C)=C\C=C\[C@H](C)[C@H](O)[C@@H](C)[C@@H](O)[C@@H](C)[C@H](OC(C)=O)[C@@H]1C)C4=O [Example 9, (S)-3-[1-(3-Carboxy-1-cyclopropyl-6-fluoro-4-oxo-1,4-dihydroquinolin-7-yl)-pyrrolidin-3-ylamino]rifamycin S]",2 to 32 µg/mL,0.008 to 0.125 µg/mL,0.06 to 16 µg/mL,0.06 to 32 µg/mL,0.004 to 0.5 µg/mL,0.125 to 8 µg/mL,0.008 to 0.063 µg/mL,0.008 to 0.063 µg/mL,0.5 to 64 µg/mL,0.004 to 0.5 µg/mL,0.125 to 2 µg/mL
"COc1c(N2CCN(C3=C4NC(=O)/C(C)=C\C=C\[C@H](C)[C@H](O)[C@@H](C)[C@@H](O)[C@@H](C)[C@H](OC(C)=O)[C@H](C)[C@@H](OC)/C=C/O[C@@]5(C)Oc6c(C)c(O)c(c(c6C5=O)C3=O)C4=O)C(C)C2)c(F)cc2c(=O)c(C(=O)O)cn(C3CC3)c12 (stereo partly drawn) [Example 10, (R,S)-3-[4-(3-Carboxy-1-cyclopropyl-6-fluoro-8-methoxy-4-oxo-1,4-dihydroquinolin-7-yl)-2-methylpiperazin-1-yl]rifamycin S]",2 to 32 µg/mL,0.008 to 0.125 µg/mL,0.06 to 16 µg/mL,0.06 to 32 µg/mL,0.004 to 0.5 µg/mL,0.125 to 8 µg/mL,0.008 to 0.063 µg/mL,0.008 to 0.063 µg/mL,0.5 to 64 µg/mL,0.004 to 0.5 µg/mL,0.125 to 2 µg/mL
"CO[C@H]1/C=C/O[C@@]2(C)Oc3c(C)c(O)c4c(O)c(c(CN5CCN(c6cc7c(cc6F)c(=O)c(C(=O)O)cn7C6CC6)CC5)c(O)c4c3C2=O)NC(=O)/C(C)=C\C=C\[C@H](C)[C@H](O)[C@@H](C)[C@@H](O)[C@@H](C)[C@H](OC(C)=O)[C@@H]1C [Example 12, 3-[4-[3-Carboxy-1-cyclopropyl-6-fluoro-4-oxo-(1,4-dihydroquinolin-7-yl)]-piperazin-1-ylmethyl]rifamycin SV]",2 to 32 µg/mL,0.008 to 0.125 µg/mL,0.06 to 16 µg/mL,0.06 to 32 µg/mL,0.004 to 0.5 µg/mL,0.125 to 8 µg/mL,0.008 to 0.063 µg/mL,0.008 to 0.063 µg/mL,0.5 to 64 µg/mL,0.004 to 0.5 µg/mL,0.125 to 2 µg/mL
"CO[C@H]1/C=C/O[C@@]2(C)Oc3c(C)c(O)c4c(O)c(c(CN5CCN(c6nc7c(cc6F)c(=O)c(C(=O)O)cn7-c6ccc(F)cc6F)CC5)c(O)c4c3C2=O)NC(=O)/C(C)=C\C=C\[C@H](C)[C@H](O)[C@@H](C)[C@@H](O)[C@@H](C)[C@H](OC(C)=O)[C@@H]1C [Example 14, 3-[4-[3-carboxy-1-(2,4-Difluoro-phenyl)-6-fluoro-4-oxo-1,4-dihydro-[1,8]naphthyridin-7-yl]piperazin-1-ylmethyl]rifamycin SV]",2 to 32 µg/mL,0.008 to 0.125 µg/mL,0.06 to 16 µg/mL,0.06 to 32 µg/mL,0.004 to 0.5 µg/mL,0.125 to 8 µg/mL,0.008 to 0.063 µg/mL,0.008 to 0.063 µg/mL,0.5 to 64 µg/mL,0.004 to 0.5 µg/mL,0.125 to 2 µg/mL
"CO[C@H]1/C=C/O[C@@]2(C)Oc3c(C)c(O)c4c(O)c(c(CN[C@@H]5CCN(c6cc7c(cc6F)c(=O)c(C(=O)O)cn7C6CC6)C5)c(O)c4c3C2=O)NC(=O)/C(C)=C\C=C\[C@H](C)[C@H](O)[C@@H](C)[C@@H](O)[C@@H](C)[C@H](OC(C)=O)[C@@H]1C [Example 15, (R)-3-[1-(3-carboxy-1-cyclopropyl-6-fluoro-4-oxo-1,4-dihydroquinolin-7-yl)-pyrrolidinyl-3-aminomethyl]rifamycin SV]",2 to 32 µg/mL,0.008 to 0.125 µg/mL,0.06 to 16 µg/mL,0.06 to 32 µg/mL,0.004 to 0.5 µg/mL,0.125 to 8 µg/mL,0.008 to 0.063 µg/mL,0.008 to 0.063 µg/mL,0.5 to 64 µg/mL,0.004 to 0.5 µg/mL,0.125 to 2 µg/mL
"CO[C@H]1/C=C/O[C@@]2(C)Oc3c(C)c(O)c4c(O)c(c(CN[C@H]5CCN(c6cc7c(cc6F)c(=O)c(C(=O)O)cn7C6CC6)C5)c(O)c4c3C2=O)NC(=O)/C(C)=C\C=C\[C@H](C)[C@H](O)[C@@H](C)[C@@H](O)[C@@H](C)[C@H](OC(C)=O)[C@@H]1C [Example 16, (S)-3-[1-(3-carboxy-1-cyclopropyl-6-fluoro-4-oxo-1,4-dihydroquinolin-7-yl)-pyrrolidinyl-3-aminomethyl]rifamycin SV]",2 to 32 µg/mL,0.008 to 0.125 µg/mL,0.06 to 16 µg/mL,0.06 to 32 µg/mL,0.004 to 0.5 µg/mL,0.125 to 8 µg/mL,0.008 to 0.063 µg/mL,0.008 to 0.063 µg/mL,0.5 to 64 µg/mL,0.004 to 0.5 µg/mL,0.125 to 2 µg/mL
"CO[C@H]1/C=C/O[C@@]2(C)Oc3c(C)c(O)c4c(c3C2=O)C(=O)C(N2CCN(c3ccc(N5C[C@H](CNC(C)=O)OC5=O)cc3F)CC2)=C(NC(=O)/C(C)=C\C=C\[C@H](C)[C@H](O)[C@@H](C)[C@@H](O)[C@@H](C)[C@H](OC(C)=O)[C@@H]1C)C4=O [Example 23, (S)-3-[4-[4-(5-Acetylaminomethyl-2-oxo-oxazolidin-3-yl)-2-fluoro-phenyl]-piperazin-1-yl]rifamycin S]",2 to 32 µg/mL,0.008 to 0.125 µg/mL,0.06 to 16 µg/mL,0.06 to 32 µg/mL,0.004 to 0.5 µg/mL,0.125 to 8 µg/mL,0.008 to 0.063 µg/mL,0.008 to 0.063 µg/mL,0.5 to 64 µg/mL,0.004 to 0.5 µg/mL,0.125 to 2 µg/mL
